In brackets after ≈: the same amount, converted by molar mass.

This note sets out measurements from patent US6530985B1, “Water-based magenta ink composition and method of ink-jet recording” (Nippon Kayaku Kabushiki Kaisha, priority 1998, dated 2003).

A short description of the data set: Solubility of the dye in water. The data set is classed as physicochemical. The source says: Further, the dye component used in the Example, which has a solubility in water of 100 g/L, is excellent for ink-jet recording and can produce a high concentration of ink composition.

Regarding `CCC(C)(C)c1ccc(Oc2cc(Nc3ccc(S(=O)(=O)O)cc3)c3c4c(c(C(=O)c5ccccc5)c(=O)[nH]c24)-c2ccccc2C3=O)c(S(=O)(=O)O)c1`, the “solubility in pure water (ion exchanged water)” value (25° C., listed as the dye component used in the Example) came to 100 mg/mL (≈ 131 mM). In addition, for the setting “pure water (ion exchanged water), 25 °C, water”, the solubility (in general, the concentration that dissolves in the medium under given conditions) is ~100 mg/mL (≈ 131 mM).
